From patent US20230312587A1, “PTERIDINONE COMPOUNDS AND USES THEREOF” (Vertex Pharmaceutical Incorporated, priority 2018, published 2023)

tested on: β-catenin-TCF-mediated reporter transcription activity in Colo 205 cells; assay: Colo 205 reporter assay (TCF/LEF luciferase); format: cell-based; details: Colo 205 TCF/LEF luciferase reporter, five hours after addition of compound; read-out: TCF reporter Colo205 IC50
In short: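 Luciferase signal from a TCF/LEF-driven reporter, stably integrated in Colo 205 colon cancer cells, was measured 5 h after compound addition.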

IC50 [µM]	SMILES
0.3 to 1	CC[C@H]1C(=O)N(C)c2cnc(NCc3cnn(Cc4ccc(F)cc4)c3)nc2N1C(C)C [Compound 52, (7S)-7-ethyl-2-(((1-(4-fluorobenzyl)-1H-pyrazol-4-yl)methyl)amino)-8-isopropyl-5-methyl-7,8-dihydropteridin-6(5H)-one]
< 0.3	Cc1nc(N[C@H]2CO[C@H](COc3cc(F)c(F)c(F)c3)C2)nc2c1NC(=O)[C@H](C)N2C [Compound 301, (7S)-4,7,8-trimethyl-2-(((3R,5S)-5-((3,4,5-trifluorophenoxy)methyl)tetrahydrofuran-3-yl)amino)-7,8-dihydropteridin-6(5H)-one]
0.3 to 1	COCC1(C)C(=O)Nc2c(C)nc(N[C@H]3C[C@H](Oc4cnc(C(F)(F)F)nc4)C3)nc2N1C (relative stereo) [Compound 706, 7-(methoxymethyl)-4,7,8-trimethyl-2-((trans-3-((2-(trifluoromethyl)pyrimidin-5-yl)oxy)cyclobutyl)amino)-7,8-dihydropteridin-6(5H)-one]
< 0.3	CC[C@H]1C(=O)Nc2c(C)nc(NCc3cnn(Cc4ccc(OC(F)F)nc4)c3)nc2N1C [Compound 417, (7S)-2-(((1-((6-(difluoromethoxy)pyridin-3-yl)methyl)-1H-pyrazol-4-yl)methyl)amino)-7-ethyl-4,8-dimethyl-7,8-dihydropteridin-6(511)-one]

same assay, conditions: Homo sapiens, COLO 205, 5 h, Colo 205 TCF/LEF luciferase reporter, five hours after addition of compound; read-out: TCF reporter Colo205 IC50

IC50 [µM]	SMILES
< 0.3	COC1(C2C(=O)Nc3c(C)nc(N[C@H]4C[C@@H](Nc5cnc(C(F)(F)F)cn5)C4)nc3N2C)CCC1 (relative stereo) [Compound 672, 7-(1-methoxycyclobutyl)-4,8-dimethyl-2-((cis-3-((5-(trifluoromethyl)pyrazin-2-yl)amino)cyclobutyl)amino)-7,8-dihydropteridin-6(5H)-one]
≥ 5	O=C1Nc2cnc(NCc3cnn(Cc4ccc(F)cc4)c3)nc2N[C@H]1CCO [Compound 11, (7S)-2-(((1-(4-Fluorobenzyl)-1H-pyrazol-4-yl)methyl)amino)-7-(2-hydroxyethyl)-7,8-dihydropteridin-6(5H)-one]
1 to 5	Cc1nc(NCc2ccc(Nc3cnn(CC(F)(F)F)c3)nc2)nc2c1NC(=O)[C@H](C)N2C [Compound 126, (7S)-4,7,8-trimethyl-2-(((6-((1-(2,2,2-trifluoroethyl)-1H-pyrazol-4-yl)amino)pyridin-3-yl)methyl)amino)-7,8-dihydropteridin-6(5H)-one]
≥ 5	Cc1nc(N[C@H]2C[C@H](NC(=O)Nc3ccc(C(F)(F)F)nc3)C2)nc2c1NC(=O)[C@H](C)N2C [Compound 471, 1-(6-(trifluoromethyl)pyridin-3-yl)-3-(trans-3-(((S)-4,7,8-trimethyl-6-oxo-5,6,7,8-tetrahydropteridin-2-yl)amino)cyclobutyl)urea]
< 0.3	COC1(C2C(=O)Nc3c(C)nc(N[C@H]4C[C@H](COc5ccc(C(F)(F)F)nc5)C4)nc3N2C)CCC1 (relative stereo) [Compound 669, 7-(1-methoxycyclobutyl)-4,8-dimethyl-2-((trans-3-(((6-(trifluoromethyl)pyridin-3-yl)oxy)methyl)cyclobutyl)amino)-7,8-dihydropteridin-6(5H)-one]
< 0.3	CC[C@H]1C(=O)Nc2c(C)nc(N[C@H]3C[C@@H](CNc4cnc(C(F)(F)F)cn4)C3)nc2N1C [Compound 713, (S)-7-ethyl-4,8-dimethyl-2-((cis-3-(((5-(trifluoromethyl)pyrazin-2-yl)amino)methyl)cyclobutyl)amino)-7,8-dihydropteridin-6(5H)-one]

The next lines start with the compound.

SMILES	IC50 [µM]
Cc1nc(N[C@H]2C[C@@H](COc3ccc(F)nc3)C2)nc2c1NC(=O)[C@H](C)N2C [Compound 270, (7S)-2-((cis-3-(((6-fluoropyridin-3-yl)oxy)methyl)cyclobutyl)amino)-4,7,8-trimethyl-7,8-dihydropteridin-6(5H)-one]	0.3 to 1
C[C@H]1C(=O)Nc2cnc(NCc3cnn(CCc4cc(F)cc(F)c4)c3)nc2N1C [Compound 120, (7S)-2-(((1-(3,5-difluorophenethyl)-1H-pyrazol-4-yl)methyl)amino)-7,8-dimethyl-7,8-dihydropteridin-6(5H)-one]	0.3 to 1
Cc1nc(NCc2cnn(Cc3ccc(OC(F)(F)F)cc3)c2)nc2c1NC(=O)[C@H](C(C)C)N2C [Compound 467, (S)-7-isopropyl-4,8-dimethyl-2-(((1-(4-(trifluoromethoxy)benzyl)-1H-pyrazol-4-yl)methyl)amino)-7,8-dihydropteridin-6(5H)-one]	< 0.3
Cc1nc(NCc2cnn([C@@H]3C[C@@H]3c3ccc(F)cc3)c2)nc2c1N(C)C(=O)[C@H](C)N2C [Compound 152, (7S)-2-(((1-((1R,2R)-2-(4-fluorophenyl)cyclopropyl)-1H-pyrazol-4-yl)methyl)amino)-4,5,7,8-tetramethyl-7,8-dihydropteridin-6(5H)-one]	< 0.3
CO[C@H](C)[C@H]1C(=O)Nc2c(C)nc(N[C@H]3C[C@H](Oc4cc(F)c(F)c(F)c4)C3)nc2N1C [Compound 599, (S)-7-((R)—1-methoxyethyl)-4,8-dimethyl-2-((trans-3-(3,4,5-trifluorophenoxy)cyclobutyl)amino)-7,8-dihydropteridin-6(5H)-one]	< 0.3
CO[C@H](C)[C@H]1C(=O)N(C)c2cnc(NCc3cnn(Cc4cc(F)c(F)c(F)c4)c3)nc2N1C [Compound 21, (7S)-7-((R)-1-methoxyethyl)-5,8-dimethyl-2-(((1-(3,4,5-trifluorobenzyl)-1H-pyrazol-4-yl)methyl)amino)-7,8-dihydropteridin-6(5H)-one]	< 0.3
Cc1nc(NC2CN(Cc3ccc(C(F)(F)F)nc3)C2)nc2c1NC(=O)[C@H](C(C)C)N2C [Compound 649, (S)-7-isopropyl-4,8-dimethyl-2-((1-((6-(trifluoromethyl)pyridin-3-yl)methyl)azetidin-3-yl)amino)-7,8-dihydropteridin-6(5H)-one]	< 0.3
Cc1nc(C(=O)N2CC(Nc3nc(C)c4c(n3)N(C)[C@@H](C(C)C)C(=O)N4)C2)co1 [Compound 610, (S)-7-isopropyl-4,8-dimethyl-2-((1-(2-methyloxazole-4-carbonyl)azetidin-3-yl)amino)-7,8-dihydropteridin-6(5H)-one]	≥ 5
Cc1cc(C(=O)N2CC(Nc3nc(C)c4c(n3)N(C)[C@@H](C(C)C)C(=O)N4)C2)on1 [Compound 620, (S)-7-isopropyl-4,8-dimethyl-2-((1-(3-methylisoxazole-5-carbonyl)azetidin-3-yl)amino)-7,8-dihydropteridin-6(5H)-one]	≥ 5
COc1cc(OC[C@H]2C[C@@H](Nc3nc(C)c4c(n3)N(C)[C@@H](C)C(=O)N4)C2)cc(OC)c1OC [Compound 280, (7S)-4,7,8-trimethyl-2-((cis-3-((3,4,5-trimethoxyphenoxy)methyl)-cyclobutyl)amino)-7,8-dihydropteridin-6(5H)-one]	< 0.3
Cc1nc(N[C@H]2C[C@H](Oc3ccc(F)c(F)c3)C2)nc2c1N(C)C(=O)[C@H](C)N2C [Compound 252, (7S)-2-((trans-3-(3,4-difluorophenoxy)cyclobutyl)amino)-4,5,7,8-tetramethyl-7,8-dihydropteridin-6(5H)-one]	< 0.3
Cc1nc(N[C@H](C)c2cnn(Cc3ccc(C(F)(F)F)nc3)c2)nc2c1NC(=O)[C@H](C)N2C [Compound 217, (7S)-4,7,8-Trimethyl-2-(((R)-1-(1-((6-(trifluoromethyl)pyridin-3-yl)methyl)-1H-pyrazol-4-yl)ethyl)amino)-7,8-dihydropteridin-6(5H)-one]	≥ 5
CC[C@H]1C(=O)N(C)c2cnc(NCc3cnn(Cc4cc(F)c(F)c(F)c4)c3)nc2N1C(C)C [Compound 36, (7S)-7-ethyl-8-isopropyl-5-methyl-2-(((1-(3,4,5-trifluorobenzyl)-1H-pyrazol-4-yl)methyl)amino)-7,8-dihydropteridin-6(5H)-one]	< 0.3
Cc1nc(N[C@H]2C[C@H](Nc3nccc(C(F)(F)F)n3)C2)nc2c1NC(=O)[C@H](C(C)C)N2C [Compound 529, (S)-7-isopropyl-4,8-dimethyl-2-((trans-3-((4-(trifluoromethyl)pyrimidin-2-yl)amino)cyclobutyl)amino)-7,8-dihydropteridin-6(5H)-one]	1 to 5
Cc1nc(N[C@H]2C[C@H](NC(=O)c3cc(F)c(F)c(F)c3)C2)nc2c1NC(=O)[C@H](C)N2C [Compound 476, 3,4,5-trifluoro-N-(trans-3-(((S)-4,7,8-trimethyl-6-oxo-5,6,7,8-tetrahydropteridin-2-yl)amino)cyclobutyl)benzamide]	1 to 5
Cc1nc(N[C@H]2C[C@H](N(C)c3cnc(C(F)(F)F)cn3)C2)nc2c1NC(=O)[C@H](C)N2C [Compound 683, (S)-4,7,8-trimethyl-2-((trans-3-(methyl(5-(trifluoromethyl)pyrazin-2-yl)amino)cyclobutyl)amino)-7,8-dihydropteridin-6(5H)-one]	0.3 to 1
Cc1nc(N[C@H]2C[C@H](NC(=O)N3CCC(F)(F)CC3)C2)nc2c1NC(=O)[C@H](C(C)C)N2C [Compound 523, 4,4-difluoro-N-(trans-3-(((S)-7-isopropyl-4,8-dimethyl-6-oxo-5,6,7,8-tetrahydropteridin-2-yl)amino)cyclobutyl)piperidine-1-carboxamide]	≥ 5
Cc1nc(NCc2cnn(-c3cccc(C(F)(F)F)c3)c2)nc2c1NC(=O)[C@H](C)N2C [Compound 97, (7S)-4,7,8-trimethyl-2-(((1-(3-(trifluoromethyl)phenyl)-1H-pyrazol-4-yl)methyl)amino)-7,8-dihydropteridin-6(5H)-one]	< 0.3

same assay, conditions: Homo sapiens, COLO 205, 5 h, R-isomer at C2 (corresponding to C2 S-isomer); Colo 205 TCF/LEF luciferase reporter, 5 h; read-out: TCF reporter Colo205 IC50

IC50 [µM]	SMILES
1 to 5	Cc1nc(NCc2cnn(Cc3ccc(Cl)nc3)c2)nc2c1N(C)C(=O)[C@@H](CCO)N2C [Compound I-1644]
0.3 to 1	Cc1nc(NCc2cnn(Cc3cc(C(F)(F)F)nn3C)c2)nc2c1NC(=O)[C@@H](C1CC1)N2C [Compound I-1498]
